Source: US5744452A, “γ-L-glutamyl containing immunomodulator compounds and methods therewith” (Wei; Edward T., priority 1995, dated 1998)
Where a SMILES comes first, the peptide text is derived from it. Where no end group is shown, it is not given here.

Tests used:
murine spleen cells = experiment: IL-2 production by Concanavalin A activated murine spleen cells (CTLL-2 cell assay); format: cell-based, CBA mice; conditions: for interleukin-2 production by murine spleen cells: Table 6; for IL-2 production by murine spleen cells: Table 2
Description: Spleen cells from CBA mice were cultured in tissue culture plates at a 10^6 cells/ml in RPMI-1640 medium supplemented with 10% fetal calf serum, 2 mM L-glutamine, and 80 μg/ml of Gentamycin. 1 μg/ml of Concanavalin A was used to activate basal IL-2 production from murine spleen lymphocytes. Bestim was added to cell cultures at the "0" time. After 36 hours supernatants were collected, centrifuged at 800 xg and IL-2 levels were measured in a CTLL-2 cell assay (Gillis et al., "T-cell Growth Factor: Parameters of Production and Quantitative Assay for Activity," J. Immunol., 120: 2027-2032, 1978). […] However, due to the variations in the method for IL-2 measurements clear dose-response comparisons could not be achieved.
IL-2 production studies have been performed using murine spleen lymphocytes activated with Concanavalin A. Spleen cells from CBA mice were cultured in a tissue culture plates at a 1×10^6 /ml concentration in RPMI-1640 medium supplemented with 10% fetal calf serum, 2 mM L-glutamine,80 μg/ml Gentamycin and 1 μg/ml Concanavalin A as an inducer of basal level IL-2 synthesis. Bestim at various concentration was added to cell cultures at the "0" time. After 36 hours supernatants were collected, centrifuged at 800 xg and used for IL-2 levels determination in a CTLL-2 cell assay (Gillis et al., 1978). IL-2-dependent CTLL-2 cells were grown in RPMI-1640 medium in the presence of 1-2 U/ml recombinant IL-2 as a growth factor. Before assay, cells were washed twice to remove IL-2 from the medium. After this wash tested supernatants were added and cells were incubated for 36 hours. IL-2-induced proliferation was assayed using a ^3 H-thymidine incorporation method.

murine bone marrow cells = experiment: .THETA.-antigen expression on murine bone marrow cells (T-lymphocyte precursor differentiation); format: cell-based, CBA strain mice; set-up: .THETA.-antigen expression on murine bone marrow cells: unit not given here; conditions: for immunostimulatory activity in the in vitro assays used: .THETA.-antigen expression and IL-2 production assays, compared with Bestim; for Percent of murine bone marrow cells expressing .THETA.-antigen: Table 5; for .THETA.-antigen expression on murine bone marrow cells: Table 1
Description: Differentiation of murine T-lymphocyte precursors was studied by the enumeration of cells expressing early surface differentiation marker .THETA.-antigen. Bone marrow cells were obtained from CBA strain mice killed by cervical dislocation. Cells were washed from femur bones with Hank's balanced salt solution and washed 3 times with RPM 1-1640 medium by centrifugation at 400 xg. Peptides at desired concentrations were incubated with 1×10^6 /ml of obtained cells for 1 hour at 37° C. Theta-antigen (".THETA.-antigen") expression has been determined with antibrain antibodies in a cytotoxicity assay using complement-dependent cell lysis (Terasaki et al., "Microdroplet Lymphocyte Cytotoxicity Test. Manual of Tissue Typing Techniques," National Institutes of Health, Bethesda, Md., pp 50-55, 1972). Dead cells were counted microscopically after eosin staining. […] Its activity was much stronger than that of the reference thymogen peptide.
Differentiation of murine T-lymphocyte precursors was studied by the enumeration of cells expressing early surface differentiation marker--.THETA.-antigen which is an analog of the Thy-1 lymphocyte differentiation antigen. Bone marrow cells were obtained from CBA strain mice killed by cervical dislocation. Cells were washed from femur bones with Hank's balanced salt solution and washed 3 times with RPMI-1640 medium by centrifugation at 400 xg. Peptides at desired concentrations were incubated with 1×10^6 /ml of obtained cells for 1 hour at 37° C. .THETA.-antigen expression were determined with antibrain antibodies in a cytotoxicity assay using complement-dependent cell lysis (Terasaki et al., 1972). Dead cells were counted microscopically after eosin staining untreated bone marrow cells served as a negative control, and murine thymocytes as a positive control.

[1] = cited from earlier work

Molecule | interleukin-2 production by murine spleen cells (murine spleen cells; peptide 0.001 μg/ml) | interleukin-2 production by murine spleen cells (murine spleen cells; peptide 0.01 μg/ml) | interleukin-2 production by murine spleen cells (murine spleen cells; peptide 0.1 μg/ml) | interleukin-2 production by murine spleen cells (murine spleen cells; peptide 1.0 μg/ml) | interleukin-2 production by murine spleen cells (murine spleen cells; peptide 10 μg/ml) | interleukin-2 production by murine spleen cells (murine spleen cells; peptide 100 μg/ml) | immunostimulatory activity in the in vitro assays used (murine bone marrow cells) | Percent of murine bone marrow cells expressing .THETA.-antigen (murine bone marrow cells; peptide 0.0001 μg/ml) | Percent of murine bone marrow cells expressing .THETA.-antigen (murine bone marrow cells; peptide 0.001 μg/ml) | Percent of murine bone marrow cells expressing .THETA.-antigen (murine bone marrow cells; peptide 0.01 μg/ml) | Percent of murine bone marrow cells expressing .THETA.-antigen (murine bone marrow cells; peptide 0.1 μg/ml) | Percent of murine bone marrow cells expressing .THETA.-antigen (murine bone marrow cells; peptide 1.0 μg/ml) | Percent of murine bone marrow cells expressing .THETA.-antigen (murine bone marrow cells; peptide 10 μg/ml) | Percent of murine bone marrow cells expressing .THETA.-antigen (murine bone marrow cells; peptide 100 μg/ml) | further results
CN[C@@H](CCC(=O)N[C@@H](Cc1c[nH]c2ccccc12)C(=O)O)C(=O)O [B, N-methyl-γ-L-glutamyl-L-tryptophan] | 134 ± 6 | 147 ± 8 | 152 ± 7 | 165 ± 6 | 171 ± 6 | 180 ± 11 | active compounds were obtained | 20% | 29% | 34% | 40% | 47% | 51% | 53% | 
CC(=O)N[C@@H](CCC(=O)N[C@@H](Cc1c[nH]c2ccccc12)C(=O)O)C(=O)O [C, N-acetyl-γ-L-glutamyl-L-tryptophan] | 128 ± 7 | 136 ± 7 | 149 ± 5 | 157 ± 9 | 170 ± 4 | 174 ± 8 | active compounds were obtained | 19% | 28% | 35% | 40% | 45% | 46% | 50% | 
N[C@@H](CCC(=O)N[C@@H](Cc1cn(C=O)c2ccccc12)C(=O)O)C(=O)O [D, γ-L-glutamyl-Nin -formyl-L-tryptophan] | 114 ± 16 | 125 ± 3 | 153 ± 20 | 132 ± 8 | 144 ± 7 | 154 ± 5 | active compounds were obtained | 24% | 25% | 30% | 36% | 42% | 48% | 53% | 
N[C@@H](CCC(=O)O)C(=O)N[C@@H](Cc1c[nH]c2ccccc12)C(=O)O [Thymogen, L-glutamyl-L-tryptophan, reference compound] (H-Glu-Trp-OH) | 115 ± 8 | 132 ± 16 | 118 ± 11 | 128 ± 5 | 129 ± 10 | 136 ± 4 |  |  |  | 18% | 20% | 25% | 29% | 32% | IL-2 production by murine spleen cells (murine spleen cells; peptide 0.001 μg/ml, 36 hours): 114 ± 12; IL-2 production by murine spleen cells (murine spleen cells; peptide 0.01 μg/ml): 106 ± 10; IL-2 production by murine spleen cells (murine spleen cells; peptide 0.1 μg/ml): 106 ± 5; IL-2 production by murine spleen cells (murine spleen cells; peptide 1.0 μg/ml): 189 ± 13; IL-2 production by murine spleen cells (murine spleen cells; peptide 10 μg/ml): 80 ± 9; IL-2 production by murine spleen cells (murine spleen cells; peptide 100 μg/ml): 89 ± 3; .THETA.-antigen expression on murine bone marrow cells (murine bone marrow cells; peptide 0.0001 μg/ml, 1 hour 37° C.): 10 ± 0.5; .THETA.-antigen expression on murine bone marrow cells (murine bone marrow cells; peptide 0.001 μg/ml): 10 ± 1.2; .THETA.-antigen expression on murine bone marrow cells (murine bone marrow cells; peptide 0.01 μg/ml): 10 ± 0.5; .THETA.-antigen expression on murine bone marrow cells (murine bone marrow cells; peptide 0.1 μg/ml): 9 ± 1.0; .THETA.-antigen expression on murine bone marrow cells (murine bone marrow cells; peptide 1.0 μg/ml): 21 ± 0.8; .THETA.-antigen expression on murine bone marrow cells (murine bone marrow cells; peptide 10 μg/ml): 36 ± 2.8; .THETA.-antigen expression on murine bone marrow cells (murine bone marrow cells; peptide 100 μg/ml): 37 ± 2.2
N[C@@H](CCC(=O)N[C@@H](Cc1c[nH]cn1)C(=O)O)C(=O)O [γ-L-glutamyl-L-histidine] |  |  |  |  |  |  | little, if any, of the activities of Bestim |  |  |  |  |  |  |  | 
CC[C@H](C)[C@H](NC(=O)CC[C@H](N)C(=O)O)C(=O)O [γ-L-glutamyl-L-isoleucine] |  |  |  |  |  |  | little, if any, of the activities of Bestim |  |  |  |  |  |  |  | 
CC(C)C[C@H](NC(=O)CC[C@H](N)C(=O)O)C(=O)O [γ-L-glutamyl-L-leucine] |  |  |  |  |  |  | little, if any, of the activities of Bestim |  |  |  |  |  |  |  | 
N[C@@H](CCC(=O)N[C@@H](Cc1ccccc1)C(=O)O)C(=O)O [γ-L-glutamyl-L-phenylalanine] |  |  |  |  |  |  | little, if any, of the activities of Bestim |  |  |  |  |  |  |  | 
N[C@@H](CCC(=O)N1CCC[C@H]1C(=O)O)C(=O)O [γ-L-glutamyl-L-proline] |  |  |  |  |  |  | little, if any, of the activities of Bestim |  |  |  |  |  |  |  | 
N[C@@H](CCC(=O)N[C@@H](Cc1ccc(O)cc1)C(=O)O)C(=O)O [γ-L-glutamyl-L-tyrosine] |  |  |  |  |  |  | little, if any, of the activities of Bestim |  |  |  |  |  |  |  | 
RKDVY [thymopentin, Arg-Lys-Asp-Val-Tyr] |  |  |  |  |  |  |  |  |  |  |  |  |  |  | half-life of breakdown in plasma [1]: 30 s
γ-L-glutamyl-β-thienyl-D-alanyl-amide | 146 ± 28 | 127 ± 26 | 128 ± 10 | 156 ± 11 | 172 ± 12 | 198 ± 7 | active compounds were obtained | 20% | 23% | 20% | 27% | 28% | 36% | 40% | 
